From ChEMBL document CHEMBL3885881, “DrugMatrix”

Organism: Rattus norvegicus
Test: DrugMatrix - Regimen: Daily Repeat
Format: toxicity, organism-based, Sprague-Dawley
Set-up: regimen Daily Repeat, gender Male, age 6-8 weeks
Conditions: in vivo, po, route oral GAVAGE, vehicle 100 % WATER; for BASOPHIL / EOSINOPHIL / ERYTHROCYTE COUNT / HEMATOCRIT / HEMOGLOBIN / LEUKOCYTE COUNT / LYMPHOCYTE / MEAN CORPUSCULAR HEMOGLOBIN / MEAN CORPUSCULAR HEMOGLOBIN CONCENTRATION / MEAN CORPUSCULAR VOLUME / MONOCYTE / NEUTROPHIL / PLATELET COUNT: tissue Blood; for ALANINE AMINOTRANSFERASE / ALBUMIN / ALKALINE PHOSPHATASE / ASPARTATE AMINOTRANSFERASE / BLOOD UREA NITROGEN / CARBON DIOXIDE / CHLORIDE / CHOLESTEROL / CREATINE PHOSPHOKINASE / CREATININE / GLUCOSE / LACTATE DEHYDROGENASE / LIPASE / PHOSPHORUS / POTASSIUM / SODIUM / TOTAL BILIRUBIN / TOTAL PROTEIN / URIC ACID: tissue Plasma
[1] = 0 mg/kg, 96 h, dose level Control, time 4 day
[2] = 0 mg/kg, […], dose level Control, time 6 day
[3] = 0 mg/kg, […], dose level Control, time 14 day
[4] = 210 mg/kg, 96 h, dose level High, time 4 day
[5] = 210 mg/kg, […], dose level High, time 6 day
[6] = 210 mg/kg, […], dose level High, time 14 day

OCC1CO1 (configuration not stated) [GLYCIDOL]
BASOPHIL [1]: 0.47%
EOSINOPHIL [1]: 0.58%
ERYTHROCYTE COUNT [1]: 6.84 x10E6/uL
HEMATOCRIT [1]: 44.27%
HEMOGLOBIN [1]: 14.08 G/DL
LEUKOCYTE COUNT [1]: 13.39 x10E3/uL
LYMPHOCYTE [1]: 83.57%
MEAN CORPUSCULAR HEMOGLOBIN [1]: 20.57 pg
MEAN CORPUSCULAR HEMOGLOBIN CONCENTRATION [1]: 31.77 G/DL
MEAN CORPUSCULAR VOLUME [1]: 64.68 fL
MONOCYTE [1]: 1.92%
NEUTROPHIL [1]: 12.95%
PLATELET COUNT [1]: 1533.67 x10E3/uL
ALANINE AMINOTRANSFERASE [1]: 28.17 u/L
ALBUMIN [1]: 3.82 G/DL
ALKALINE PHOSPHATASE [1]: 354.33 u/L
ASPARTATE AMINOTRANSFERASE [1]: 73.83 u/L
BLOOD UREA NITROGEN [1]: 16 mg/dL
CARBON DIOXIDE [1]: 27.17 mmol/L
CHLORIDE [1]: 104.83 MEQ/L
CHOLESTEROL [1]: 83.33 mg/dL
CREATINE PHOSPHOKINASE [1]: 288 u/L
CREATININE [1]: 0.33 mg/dL
GLUCOSE [1]: 181.33 mg/dL
LACTATE DEHYDROGENASE [1]: 173.17 u/L
LIPASE [1]: 17.67 u/L
PHOSPHORUS [1]: 11.5 mg/dL
POTASSIUM [1]: 6.8 MEQ/L
SODIUM [1]: 147 MEQ/L
TOTAL BILIRUBIN [1]: 0.35 mg/dL
TOTAL PROTEIN [1]: 6.35 G/DL
URIC ACID [1]: 1.55 mg/dL
BASOPHIL [2]: 0.33%
EOSINOPHIL [2]: 0.85%
ERYTHROCYTE COUNT [2]: 6.98 x10E6/uL
HEMATOCRIT [2]: 38.58%
HEMOGLOBIN [2]: 14.25 G/DL
LEUKOCYTE COUNT [2]: 11.01 x10E3/uL
LYMPHOCYTE [2]: 85.07%
MEAN CORPUSCULAR HEMOGLOBIN [2]: 20.47 pg
MEAN CORPUSCULAR HEMOGLOBIN CONCENTRATION [2]: 31.45 G/DL
MEAN CORPUSCULAR VOLUME [2]: 64.9 fL
MONOCYTE [2]: 1.9%
NEUTROPHIL [2]: 11.42%
PLATELET COUNT [2]: 1289.67 x10E3/uL
BASOPHIL [3]: 0.52%
EOSINOPHIL [3]: 0.55%
ERYTHROCYTE COUNT [3]: 7.72 x10E6/uL
HEMATOCRIT [3]: 51.87%
HEMOGLOBIN [3]: 15.32 G/DL
LEUKOCYTE COUNT [3]: 16.2 x10E3/uL
LYMPHOCYTE [3]: 85.13%
MEAN CORPUSCULAR HEMOGLOBIN [3]: 19.85 pg
MEAN CORPUSCULAR HEMOGLOBIN CONCENTRATION [3]: 29.52 G/DL
MEAN CORPUSCULAR VOLUME [3]: 67.17 fL
MONOCYTE [3]: 1.7%
NEUTROPHIL [3]: 11.6%
PLATELET COUNT [3]: 1104.17 x10E3/uL
ALANINE AMINOTRANSFERASE [2]: 28.17 u/L
ALBUMIN [2]: 3.78 G/DL
ALKALINE PHOSPHATASE [2]: 385.33 u/L
ASPARTATE AMINOTRANSFERASE [2]: 78 u/L
BLOOD UREA NITROGEN [2]: 16.83 mg/dL
CARBON DIOXIDE [2]: 26.67 mmol/L
CHLORIDE [2]: 106.83 MEQ/L
CHOLESTEROL [2]: 82.67 mg/dL
CREATINE PHOSPHOKINASE [2]: 225.5 u/L
CREATININE [2]: 0.27 mg/dL
GLUCOSE [2]: 179.5 mg/dL
LACTATE DEHYDROGENASE [2]: 98.33 u/L
LIPASE [2]: 14.67 u/L
PHOSPHORUS [2]: 12.28 mg/dL
POTASSIUM [2]: 7.03 MEQ/L
SODIUM [2]: 150.33 MEQ/L
TOTAL BILIRUBIN [2]: 0.38 mg/dL
TOTAL PROTEIN [2]: 6.45 G/DL
URIC ACID [2]: 1.6 mg/dL
ALANINE AMINOTRANSFERASE [3]: 37 u/L
ALBUMIN [3]: 4.13 G/DL
ALKALINE PHOSPHATASE [3]: 342 u/L
ASPARTATE AMINOTRANSFERASE [3]: 71 u/L
BLOOD UREA NITROGEN [3]: 16.5 mg/dL
CARBON DIOXIDE [3]: 28.17 mmol/L
CHLORIDE [3]: 104 MEQ/L
CHOLESTEROL [3]: 70.67 mg/dL
CREATINE PHOSPHOKINASE [3]: 287.67 u/L
CREATININE [3]: 0.38 mg/dL
GLUCOSE [3]: 150.17 mg/dL
LACTATE DEHYDROGENASE [3]: 81.33 u/L
LIPASE [3]: 16 u/L
PHOSPHORUS [3]: 11.32 mg/dL
POTASSIUM [3]: 6.22 MEQ/L
SODIUM [3]: 147.33 MEQ/L
TOTAL BILIRUBIN [3]: 0.43 mg/dL
TOTAL PROTEIN [3]: 6.55 G/DL
URIC ACID [3]: 1.38 mg/dL
BASOPHIL [4]: 0.37%
EOSINOPHIL [4]: 0.43%
ERYTHROCYTE COUNT [4]: 6.84 x10E6/uL
HEMATOCRIT [4]: 44.53%
HEMOGLOBIN [4]: 13.97 G/DL
LEUKOCYTE COUNT [4]: 11.04 x10E3/uL
LYMPHOCYTE [4]: 82.73%
MEAN CORPUSCULAR HEMOGLOBIN [4]: 20.43 pg
MEAN CORPUSCULAR HEMOGLOBIN CONCENTRATION [4]: 31.4 G/DL
MEAN CORPUSCULAR VOLUME [4]: 65.2 fL
MONOCYTE [4]: 2.77%
NEUTROPHIL [4]: 12.93%
PLATELET COUNT [4]: 1402.67 x10E3/uL
ALANINE AMINOTRANSFERASE [4]: 41.67 u/L
ALBUMIN [4]: 3.9 G/DL
ALKALINE PHOSPHATASE [4]: 368 u/L
ASPARTATE AMINOTRANSFERASE [4]: 81.33 u/L
BLOOD UREA NITROGEN [4]: 15.33 mg/dL
CARBON DIOXIDE [4]: 26 mmol/L
CHLORIDE [4]: 105.33 MEQ/L
CHOLESTEROL [4]: 107.33 mg/dL
CREATINE PHOSPHOKINASE [4]: 232 u/L
CREATININE [4]: 0.4 mg/dL
GLUCOSE [4]: 184 mg/dL
LACTATE DEHYDROGENASE [4]: 181 u/L
LIPASE [4]: 21 u/L
PHOSPHORUS [4]: 10.67 mg/dL
POTASSIUM [4]: 6.63 MEQ/L
SODIUM [4]: 147.33 MEQ/L
TOTAL BILIRUBIN [4]: 0.37 mg/dL
TOTAL PROTEIN [4]: 6.6 G/DL
URIC ACID [4]: 1.53 mg/dL
BASOPHIL [5]: 0.33%
EOSINOPHIL [5]: 0.33%
ERYTHROCYTE COUNT [5]: 6.72 x10E6/uL
HEMATOCRIT [5]: 43.03%
HEMOGLOBIN [5]: 13.67 G/DL
LEUKOCYTE COUNT [5]: 11.41 x10E3/uL
LYMPHOCYTE [5]: 88.93%
MEAN CORPUSCULAR HEMOGLOBIN [5]: 20.37 pg
MEAN CORPUSCULAR HEMOGLOBIN CONCENTRATION [5]: 31.77 G/DL
MEAN CORPUSCULAR VOLUME [5]: 64.1 fL
MONOCYTE [5]: 2.73%
NEUTROPHIL [5]: 6.93%
PLATELET COUNT [5]: 1416.33 x10E3/uL
BASOPHIL [6]: 0.43%
EOSINOPHIL [6]: 1.53%
ERYTHROCYTE COUNT [6]: 6.88 x10E6/uL
HEMATOCRIT [6]: 45.62%
HEMOGLOBIN [6]: 13.7 G/DL
LEUKOCYTE COUNT [6]: 12.42 x10E3/uL
LYMPHOCYTE [6]: 88.5%
MEAN CORPUSCULAR HEMOGLOBIN [6]: 19.93 pg
MEAN CORPUSCULAR HEMOGLOBIN CONCENTRATION [6]: 30.02 G/DL
MEAN CORPUSCULAR VOLUME [6]: 66.33 fL
MONOCYTE [6]: 1.9%
NEUTROPHIL [6]: 6.83%
PLATELET COUNT [6]: 1312.75 x10E3/uL
ALANINE AMINOTRANSFERASE [5]: 34 u/L
ALBUMIN [5]: 3.93 G/DL
ALKALINE PHOSPHATASE [5]: 398 u/L
ASPARTATE AMINOTRANSFERASE [5]: 76.33 u/L
BLOOD UREA NITROGEN [5]: 15.67 mg/dL
CARBON DIOXIDE [5]: 24.33 mmol/L
CHLORIDE [5]: 110 MEQ/L
CHOLESTEROL [5]: 95.33 mg/dL
CREATINE PHOSPHOKINASE [5]: 145 u/L
CREATININE [5]: 0.3 mg/dL
GLUCOSE [5]: 175.33 mg/dL
LACTATE DEHYDROGENASE [5]: 95.33 u/L
LIPASE [5]: 6 u/L
PHOSPHORUS [5]: 11.3 mg/dL
POTASSIUM [5]: 6.9 MEQ/L
SODIUM [5]: 151.67 MEQ/L
TOTAL BILIRUBIN [5]: 0.37 mg/dL
TOTAL PROTEIN [5]: 6.67 G/DL
URIC ACID [5]: 1.63 mg/dL
ALANINE AMINOTRANSFERASE [6]: 34 u/L
ALBUMIN [6]: 4.45 G/DL
ALKALINE PHOSPHATASE [6]: 332.5 u/L
ASPARTATE AMINOTRANSFERASE [6]: 55.5 u/L
BLOOD UREA NITROGEN [6]: 17 mg/dL
CARBON DIOXIDE [6]: 27 mmol/L
CHLORIDE [6]: 105 MEQ/L
CHOLESTEROL [6]: 100.75 mg/dL
CREATINE PHOSPHOKINASE [6]: 116.5 u/L
CREATININE [6]: 0.32 mg/dL
GLUCOSE [6]: 136.5 mg/dL
LACTATE DEHYDROGENASE [6]: 63.5 u/L
LIPASE [6]: 9.75 u/L
PHOSPHORUS [6]: 12.12 mg/dL
POTASSIUM [6]: 6.47 MEQ/L
SODIUM [6]: 148.25 MEQ/L
TOTAL BILIRUBIN [6]: 0.35 mg/dL
TOTAL PROTEIN [6]: 7.2 G/DL
URIC ACID [6]: 1.62 mg/dL
